Results reported in the NIST ThermoML archive (doi:10.1021/acs.jced.9b00112).
± gives the expanded uncertainty stated by the source.

Test: osmotic coefficient (dimensionless); mn = molality of the nth substance listed, in mol/kg
Conditions: 101 kPa, Liquid

O=S(=O)([O-])[O-].[Ca+2] [calcium sulfate] + O
Conditions | osmotic coefficient
273.12 K, m1 = 0.00937 | 0.732 ± 0.013
273.12 K, m1 = 0.00952 | 0.731 ± 0.013
273.12 K, m1 = 0.01046 | 0.723 ± 0.014
273.12 K, m1 = 0.01092 | 0.719 ± 0.014
273.12 K, m1 = 0.011 | 0.719 ± 0.014
273.13 K, m1 = 0.00526 | 0.78 ± 0.011
273.13 K, m1 = 0.0056 | 0.774 ± 0.011
273.13 K, m1 = 0.00625 | 0.766 ± 0.012
273.13 K, m1 = 0.0067 | 0.76 ± 0.012
273.13 K, m1 = 0.00714 | 0.755 ± 0.012
273.13 K, m1 = 0.00742 | 0.751 ± 0.012
273.13 K, m1 = 0.00782 | 0.747 ± 0.013
273.13 K, m1 = 0.00915 | 0.734 ± 0.013
273.14 K, m1 = 0.00418 | 0.798 ± 0.01
273.14 K, m1 = 0.00487 | 0.786 ± 0.011
